Assay results taken from the METLIN SMRT retention time set (Domingo-Almenara et al. 2019).

assay: gradient 5% acetonitrile 3 min, to 50% in 2 min, to 85% in 15 min, held 3 min, 100 µL/min; settings: column: Zorbax Extend-C18 2.1 x 50 mm; eluents: water / acetonitrile, 0.1% formic acid
Procedure, shortened: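 Standards, all pure, were combined into mixtures of ~100 molecules and run at 100 μL/min on a Zorbax Extend-C18 column (2.1 × 50 mm, 1.8 μm) with water and acetonitrile, each containing 0.1% formic acid. A coupled quadrupole time-of-flight mass spectrometer operated in positive and negative ionization mode. Retention time values come from computationally picked adduct peaks, each inspected manually.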

| RP-LC retention time [s] | SMILES |
| --- | --- |
| 1060 | Cc1cccc(-c2nc(N3CC4(C)CC3CC(C)(C)C4)c3ccccc3n2)c1 (configuration not stated) |
| 765 | Cc1cccc(-c2nnc(C)c(N3CCCCC3C)n2)c1 (configuration not stated) |
| 948 | CCCCNC(=O)C1CCN(C(=O)c2cc3ccsc3n2Cc2cccc(OC)c2)CC1 |
| 800 | O=S(=O)(Cc1ccc(Cl)cc1)Nc1cccn2ncnc12 |
| 868 | CCc1ccc2occ(CC(=O)N(Cc3ccc(N(C)C)cc3)C3CCS(=O)(=O)C3)c2c1 (configuration not stated) |
| 933 | COc1cccc(CNS(=O)(=O)c2ccc3c(c2)C(=O)N(C)c2ncccc2O3)c1 |
| 617 | O=C1c2ccc(O)cc2O[C@H](c2cc(O)c(O)c(O)c2)[C@H]1O |
| 1070 | Cc1nn(C(C)C(=O)NCCc2ccccc2)c(=O)c2c(-n3cccc3)n(-c3ccccc3)nc12 (configuration not stated) |
| 1040 | O=S(=O)(Cc1nc(-c2ccc(Br)cc2)no1)c1ccccc1 |
| 877 | O=C(NCCN1CCCc2ccccc21)C1CCCN(c2ncnc3c2nc2n3CCCCC2)C1 (configuration not stated) |
| 649 | CCOc1ccc(C2C(C(=O)O)c3ccccc3C(=O)N2CCN2CCOCC2)cc1 (configuration not stated) |
| 640 | O=C(Cn1ncc2c(N3CCN(c4ccccn4)CC3)ncnc21)Nc1ccc(Cl)cc1F |
| 905 | Cc1cnn(Cc2nc(-c3ccc(NC(=O)C4CCCC4)cc3)oc2C)c1 |
| 695 | COCCNC(=O)C(C)n1nc(C)c2c(C)n(-c3ccccc3)nc2c1=O (configuration not stated) |
| 818 | CN(CC1(C)CCOCC1)C(=O)Cc1ccccc1Cl |
| 707 | Cc1ccc2[nH]c(C(=O)NC3CC3)c(N3CCCC3=O)c2c1 |
| 874 | Cc1ccc(CC(=O)N2CCC3(CC2)N=C(c2ccc(C)cc2)NO3)cc1 |
| 1010 | Cc1cccc(CN2N=C(C(=O)N3CCCCC3)S(=O)(=O)c3ccccc32)c1 |
| 1040 | CO/N=C1/C=C(C)C(=O)C(C)=C1C |

| RP-LC retention time [s] | SMILES |
| --- | --- |
| 594 | CCn1ccc2sc(C)c(C(=O)NCCCN3CCCC3=O)c2c1=O |
| 938 | CCCN(C)c1nccnc1OC1CCN(C(=O)C2CCCCC2)C1 (configuration not stated) |
| 628 | O=C1CCCN1CCCN1C(=O)[C@H]2CN(Cc3cccc(Cl)c3)C[C@H]2C1=O |
| 930 | Cc1cc(C)cc(NC(=O)CN2C(=O)CCc3cc(S(=O)(=O)N4CCCCC4C)ccc32)c1 (configuration not stated) |
| 980 | COC(=O)c1cccc(Nc2c(-c3ccc(F)cc3)nc3cnc(Br)cn23)c1 |
| 788 | Cc1ccc(Cn2nc(C(=O)NCc3ccco3)ccc2=O)cc1 |
| 864 | Cc1cc(S(=O)(=O)N2CC[C@H](n3c(=O)n(C)c4cccnc43)C2)ccc1F |
| 666 | Cc1cc(C)c(C)c(S(=O)(=O)N2CCc3nc[nH]c3C2)c1C |
| 753 | Cc1cc(=O)n(CC(C)O)c(-c2ccccc2)n1 (configuration not stated) |
| 699 | CCOc1ccc(-c2csc3c(=O)n(Cc4cccnc4)cnc23)cc1OCC |
| 1100 | COc1ccc(OC)c(NC(=O)COc2cc(C(F)(F)F)c3c(C)nn(C)c3n2)c1 |
| 887 | Cc1cccc2c(=O)n(C)c(CCC(=O)NCc3ccc(Br)cc3)nc12 |
| 604 | CNC(=O)Nc1ccc(S(N)(=O)=O)cc1 |
| 956 | O=C1CC(c2noc(CCc3ccccc3)n2)CN1c1ccccc1 (configuration not stated) |
| 1210 | Cn1cc(-c2nc(C(=O)Nc3ccc(F)cc3Cl)cs2)c2cccnc21 |
| 784 | O=C(NCc1ccc(F)cc1F)C1CCN(C(=O)c2ncn3c2COC(c2ccccc2)C3)CC1 (configuration not stated) |
| 800 | CCCN(CC(=O)N1CCc2sccc2C1COc1ccccc1OC)C(=O)COC (configuration not stated) |
| 628 | CCc1nncn1C1CCN(C(=O)c2cc(F)ccc2Cl)CC1 |
